The nature of data set [1]: Treatment of a dog with arthritic-related symptoms (Example 7). Particulars: 15-year old dog about 25 kg, commercially-available drug therapy for nine months; some worsening noted. It is filed as in vivo. How it is done: A 15-year old, black Labrador Retriever, mixed-heritage, neutered-male dog weighing about 25 kg has a history of arthritic-related symptoms that makes it difficult, or impossible, for the dog to stand, walk, or ascend or descend stairs. […] Over a subsequent period of six months, this dog is treated with a cyclooxygenase-2 inhibitor in the manner described as follows.
About 125 mg of a 95% pure, selective cyclooxygenase-2 inhibitor in white crystalline powder form is dispersed in a teaspoon of olive oil which is then spread over the surface of a single slice of commercially-available wheat bread. The bread is cut into quarters, all of which is then fed to the dog. The dog is observed to consume the entire slice of bread. Within ten (10) days of initial feeding of this dog, as described above, there is observed noticeable improvement in alleviation of arthritic-related symptoms. For example, the dog is observed to walk easily, descend stairs, […], and be less lethargic in day-to-day activities.

The conditions of data set [2]: Cynomolgus monkeys, orally for six weeks; cited from earlier work.

On to `CC(C(=O)O)c1ccc2c(c1)[nH]c1ccc(Cl)cc12` (centres unmarked) [Rimadyl carprofan], for which, in data set [1], the “improvement in the dog's arthritic-related symptoms” value was “without improvement”.
For the molecule `CN1C(C(=O)Nc2ccccn2)=C(O)c2sc(Cl)cc2S1(=O)=O` [lomoxicam], the Toxicity result in data set [2] is “monkeys: 1-2 mg/kg/day”.

The values above are taken from US20040097549A1, “Method and composition for administering a cyclooxygenase-2 inhibitor” (Pharmacia Corporation, priority 1999, published 2004).
